Laboratory results reported in ChEMBL document CHEMBL4038286, “Synthesis of camphecene derivatives using click chemistry methodology and study of their antiviral activity” (Bioorg Med Chem Lett, 2017).

These compounds were tested on Influenza A virus (assay: Antiviral activity against rimantadine-resistant Influenza A virus (A/Puerto Rico/8/34(H1N1)) infected in MDCK cells). Details: read-out: ED50 (the source's name).
Assay type: functional, A/Puerto Rico/8/1934(H1N1)

Compound | EC50 [µM]
CC(N)C12CC3CC(CC(C3)C1)C2 (stereo not given) [RIMANTADINE] | 72
CC1(C)[C@@H]2CC[C@@]1(C)/C(=N/CCN=[N+]=[N-])C2 | 455
CC1(C)[C@@H]2CC[C@@]1(C)/C(=N/CCn1cc(CCO)nn1)C2 | 55
CC1(C)[C@@H]2CC[C@@]1(C)/C(=N/CCn1cc([Si](C)(C)C)nn1)C2 | > 31
CCOP(=O)(CCCCn1cc(COCC/N=C2\C[C@H]3CC[C@]2(C)C3(C)C)nn1)OCC | 299
C#CCOCC/N=C1\C[C@H]2CC[C@]1(C)C2(C)C | > 429
CC1(C)[C@@H]2CC[C@@]1(C)/C(=N/CCn1cc(CO)nn1)C2 | 616
CC1(C)[C@@H]2CC[C@@]1(C)/C(=N\CCOCc1cn(CC/N=C3\C[C@H]4CC[C@]3(C)C4(C)C)nn1)C2 | 98
CC1(C)[C@@H]2CC[C@@]1(C)/C(=N/CCn1cc(CCN3CCOCC3)nn1)C2 | 45
CC1(C)[C@@H]2CC[C@@]1(C)/C(=N/CCOCc1cn(-c3ccccc3)nn1)C2 | 63
CCOC(=O)C(C)(Cc1cn(CC/N=C2\C[C@H]3CC[C@]2(C)C3(C)C)nn1)P(=O)(OCC)OCC (stereo not given in full) | 314
CC(N)[C@@H]1C[C@H]2CC[C@]1(C)C2 (stereo not given in full) | 181
CCOP(=O)(OCC)C(Cc1cn(CC/N=C2\C[C@H]3CC[C@]2(C)C3(C)C)nn1)P(=O)(OCC)OCC | > 58.4
NC12CC3CC(CC(C3)C1)C2 [AMANTADINE] | 60
CCCCc1cn(CC/N=C2\C[C@H]3CC[C@]2(C)C3(C)C)nn1 | 56
CNCc1cn(CC/N=C2\C[C@H]3CC[C@]2(C)C3(C)C)nn1 | > 100
COCCNCCc1cn(CC/N=C2\C[C@H]3CC[C@]2(C)C3(C)C)nn1 | 25
CC(C)(C)OC(=O)Cn1cc(COCC/N=C2\C[C@H]3CC[C@]2(C)C3(C)C)nn1 | 24
CC(C)(O)Cc1cn(CC/N=C2\C[C@H]3CC[C@]2(C)C3(C)C)nn1 | 32
CC1(C)[C@@H]2CC[C@@]1(C)/C(=N/CCOCc1cn(CCO)nn1)C2 | 50
